target: T1, Gag-Pol polyprotein [588-1027]/[588-1147] (Human immunodeficiency virus 1, UniProt P04585); test: HIV-1 RT Assay; conditions: pH 7.8; 37 °C
T1 construct: 588-1027; 588-1147

SMILES	IC50 [µM]
CCOC(=O)c1cccn1S(=O)(=O)c1c(N)cccc1Cl [ethyl 1-[(2-amino-6-chlorobenzene)sulfonyl]-1H-pyrrole-2-carboxylate]	> 100
CCOC(=O)c1cc(CO)cn1S(=O)(=O)c1cc(Cl)ccc1N [ethyl 1-[(2-amino-5-chlorobenzene)sulfonyl]-4-(hydroxymethyl)-1H-pyrrole-2-carboxylate]	0.05
CCOC(=O)c1cc(C(C)O)cn1S(=O)(=O)c1cc(Cl)ccc1N (stereo unspecified) [ethyl 1-[(2-amino-5-chlorobenzene)sulfonyl]-4-(1-hydroxyethyl)-1H-pyrrole-2-carboxylate]	0.17
C=Cc1cc(C(=O)OCC)n(S(=O)(=O)c2cc(Cl)ccc2N)c1 [ethyl 1-[(2-amino-5-chlorobenzene)sulfonyl]-4-ethenyl-1H-pyrrole-2-carboxylate]	0.28
CC(C)OC(=O)c1cc(CNc2ccccc2)cn1S(=O)(=O)c1cc(Cl)ccc1N [propan-2-yl 1-[(2-amino-5-chlorobenzene)sulfonyl]-4-[(phenylamino)methyl]-1H-pyrrole-2-carboxylate]	0.3
CCOC(=O)c1cccn1S(=O)(=O)c1cc(Cl)ccc1-n1cccc1 [Ethyl 1-{[5-Chloro-2-(1H-pyrrol-1-yl)phenyl]sulfonyl}-1H-pyrrole-2-carboxylate]	> 100
CCOC(=O)c1cc(COc2ccccc2)cn1S(=O)(=O)c1cc(Cl)ccc1N [ethyl 1-[(2-amino-5-chlorobenzene)sulfonyl]-4-(phenoxymethyl)-1H-pyrrole-2-carboxylate]	0.6
CCOC(=O)c1cc(CNc2ccccc2)cn1S(=O)(=O)c1cc(Cl)ccc1N [ethyl 1-[(2-amino-5-chlorobenzene)sulfonyl]-4-[(phenylamino)methyl]-1H-pyrrole-2-carboxylate]	0.5
CC(C)OC(=O)c1cc(CO)cn1S(=O)(=O)c1cc(Cl)ccc1N [propan-2-yl 1-[(2-amino-5-chlorobenzene)sulfonyl]-4-(hydroxymethyl)-1H-pyrrole-2-carboxylate]	0.11
CCOC(=O)c1cc(COC)cn1S(=O)(=O)c1cc(Cl)ccc1N [ethyl 1-[(2-amino-5-chlorobenzene)sulfonyl]-4-(methoxymethyl)-1H-pyrrole-2-carboxylate]	0.6
CCOC(=O)c1cc(C)cn1S(=O)(=O)c1cc(Cl)ccc1N [ethyl 1-[(2-amino-5-chlorobenzene)sulfonyl]-4-methyl-1H-pyrrole-2-carboxylate]	0.08
